Assay results reported in ChEMBL document CHEMBL1136691, “Identification of novel and potent isoquinoline aminooxazole-based IMPDH inhibitors” (Bioorg Med Chem Lett, 2003).

Molecular target: Inosine-5'-monophosphate dehydrogenase 2 (Homo sapiens, UniProt P12268)
Experiment: Inhibitory activity against inosine […] monophosphate dehydrogenase type II (IMPDH II)

## O=C(Nc1ccccc1)Nc1ccc2ccncc2c1
  IC50: > 5000 nM

## c1ccc(-c2cnc(Nc3ccc4cnccc4c3)o2)cc1
  IC50: 5 nM

## Cc1cccc(NC(=O)Nc2ccc3cnncc3c2)c1
  IC50: > 5000 nM

## Cc1cccc(NC(=O)Nc2ccc3nnccc3c2)c1
  IC50: > 1700 nM

## C=CCc1c(N)ccc2cnccc12
  IC50: 3000 nM

## O=C(NCc1ccccc1)Nc1ccc2cnccc2c1
  IC50: 400 nM

## O=C(Nc1ccccc1)Nc1ccc2cnccc2c1Br
  IC50: 740 nM

## Cc1cccc(NC(=O)Nc2ccc3cnccc3c2)c1
  IC50: 18 nM

## c1ccc(-c2cnc(Nc3ccc4cncnc4c3)o2)cc1
  IC50: 60 nM

## CC(=O)Nc1ccc2cnccc2c1Br
  IC50: > 5000 nM

## CCCc1c(N)ccc2cnccc12
  IC50: > 5000 nM

## Cc1cccc(NC(=O)Nc2ccc3cncnc3c2)c1
  IC50: 150 nM

## C=Cc1c(N)ccc2cnccc12
  IC50: 820 nM

## Cc1ccc(NC(=O)Nc2ccc3cnccc3c2)cc1
  IC50: 247 nM

## Cc1c(N)ccc2cnccc12
  IC50: > 5000 nM

## Nc1ccc2cnccc2c1Cl
  IC50: 1200 nM

## CC(=O)Nc1ccc2cnccc2c1
  IC50: > 5000 nM

## Nc1ccc2cnccc2c1
  IC50: > 5000 nM

## O=C(Nc1ccccc1)Nc1ccc2cnccc2c1
  IC50: 740 nM

## Nc1ccc2cnccc2c1Br
  IC50: 550 nM

## Cc1ccccc1NC(=O)Nc1ccc2cnccc2c1
  IC50: 3800 nM

## O=C(Nc1ccccc1)Nc1ccc2cnccc2c1Cl
  IC50: 1660 nM

## Nc1ccc2cnccc2c1N
  IC50: > 5000 nM

## COc1ccc2cnccc2c1Br
  IC50: > 5000 nM

## CC(=O)Nc1ccc2cnccc2c1Cl
  IC50: > 5000 nM
